Data as given in patent US10000471B2, “Pyrazole P38 map kinase inhibitors” (Respivert Limited, priority 2010, dated 2018).
Where two headings read alike, the source gives them in different places.

Tests used:
[1] = target: T1, p38 MAPKα isoform (MAPK14) (Homo sapiens, UniProt Q16539); test: Enzyme inhibition assay (FRET, Z-LYTE), p38 MAPKα via MAPKAP-K2 activation; type: biochemical; conditions: read-out: Enzyme Inhibition IC50 p38α
T1 construct: purchased Invitrogen
Method in brief: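 Recombinant p38 MAPKα was preincubated with compound for 2 h at RT. Its activity was measured indirectly through activation/phosphorylation of downstream MAPKAP-K2, with a Z-LYTE FRET peptide read-out (coumarin/fluorescein ratio) after a 1 h development step. IC50 came from concentration-response curves of percent inhibition versus an uninhibited control.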

[2] = test system: TNFα release in THP-1 cells; test: LPS-induced TNFα release in THP-1 cells; type: cell-based, human
Method in brief: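 Human monocytic THP-1 cells stimulated with 3 μg/mL E. coli LPS for 4 hr; supernatant TNFα measured by sandwich ELISA. Inhibition at each concentration versus vehicle control, IC50 from concentration-response curve.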

[3] = test system: IL-8 release in d-U937 cells; test: LPS-induced IL-8 release in d-U937 cells; type: cell-based, human
Method in brief: (§1)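 PMA-differentiated (100 ng/ml, 48–72 hr) U937 macrophage-type cells pre-incubated 2 hr with compound, then stimulated 4 hr with 0.1 μg/mL E. coli O111:B4 LPS; supernatant TNFα and IL-8 measured by sandwich ELISA. TNFα inhibition expressed relative to 10 μg/mL BIRB796, giving REC50; IL-8 inhibition versus vehicle, giving IC50.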

[4] = test system: Differentiated U937 cells; test: Cell viability MTT assay; type: cell-based, human; conditions: negative = apparent increase in viability; for MTT Assay (Viability) 4 h d-U937, percentage loss of cell viability: 4 hr in 5% FCS; for MTT Assay (Viability) 24 h d-U937, percentage loss of cell viability: 24 h in 10% FCS
Method in brief: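 Differentiated U937 cells pre-incubated with compound either 4 hr in 5% FCS or 24 h in 10% FCS, then 1 hr MTT. Formazan dissolved in DMSO, absorbance at 550 nm. Percentage viability loss relative to 0.5% DMSO vehicle; apparent increases appear as negative percentages.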

[5] = test system: TNFα release in d-U937 cells; test: LPS-induced TNFα release in d-U937 cells; type: cell-based, human
Method in brief: as §1

[6] = target: T2, p38 MAPKγ (MAPK12) (Homo sapiens, UniProt P53778); test: Enzyme inhibition assay (FRET, Z-LYTE), p38 MAPKγ; type: biochemical; conditions: read-out: Enzyme Inhibition IC50 p38γ
T2 construct: purchased Invitrogen
T2 sequence (P53778 1-367): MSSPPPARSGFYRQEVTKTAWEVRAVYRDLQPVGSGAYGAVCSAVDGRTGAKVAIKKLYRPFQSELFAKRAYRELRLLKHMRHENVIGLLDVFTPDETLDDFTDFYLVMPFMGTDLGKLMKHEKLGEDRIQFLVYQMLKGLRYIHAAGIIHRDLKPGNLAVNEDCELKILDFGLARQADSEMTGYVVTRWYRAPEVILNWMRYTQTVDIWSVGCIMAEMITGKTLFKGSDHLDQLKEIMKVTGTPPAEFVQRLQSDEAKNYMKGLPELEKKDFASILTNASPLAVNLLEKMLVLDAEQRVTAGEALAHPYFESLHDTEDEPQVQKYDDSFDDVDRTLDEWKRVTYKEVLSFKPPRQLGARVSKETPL
Method in brief: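 Recombinant phosphorylated p38 MAPKγ preincubated 2 h at RT with compound in HEPES buffer, then 2 μM FRET peptide and 100 μM ATP added for 1 h; protease development 1 h. Coumarin/fluorescein emission ratio gave phosphorylation; IC50 from concentration-response versus uninhibited control.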

[7] = test system: ICAM-1 induction in BEAS2B cells; test: Poly I:C-induced ICAM-1 induction in BEAS2B cells; type: cell-based, human; conditions: read-out: PolyIC/ICAM1 IC50 BEAS2B
Method in brief: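 Human bronchial epithelial BEAS2B cells were pre-incubated with compound for 2 hr, then transfected with 1 μg/mL poly I:C. After 18 hr, surface ICAM-1 was measured by cell-based ELISA (OD450-655) and normalized to crystal violet cell counts (OD595). IC50 came from inhibition versus vehicle across the concentration-response curve.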

[8] = Homo sapiens, dU937, relative to 10 μg/mL BIRB796, read-out: LPS/TNFα REC50 d-U937

T1 sequence (Q16539 whole entry, canonical isoform): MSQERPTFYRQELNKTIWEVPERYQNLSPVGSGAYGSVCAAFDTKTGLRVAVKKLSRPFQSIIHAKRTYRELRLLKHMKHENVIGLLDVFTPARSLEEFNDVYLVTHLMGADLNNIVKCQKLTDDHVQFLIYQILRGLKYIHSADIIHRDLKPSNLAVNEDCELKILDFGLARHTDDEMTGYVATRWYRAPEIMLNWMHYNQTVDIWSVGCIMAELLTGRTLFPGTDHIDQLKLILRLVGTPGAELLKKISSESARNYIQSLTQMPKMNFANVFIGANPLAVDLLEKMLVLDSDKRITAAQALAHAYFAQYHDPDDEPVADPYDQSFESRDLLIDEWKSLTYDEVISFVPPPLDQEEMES

Row | SMILES | IC50 [1] [nM] | IC50 ([2]; Homo sapiens) [nM] | IC50 ([3]; Homo sapiens, dU937) [nM] | MTT Assay (Viability) 4 h d-U937, percentage loss of cell viability [4] [%] | MTT Assay (Viability) 24 h d-U937, percentage loss of cell viability [4] [%] | EC50 [5, 8] [nM] | IC50 [6] [nM] | IC50 ([7]; Homo sapiens, BEAS-2B) [nM] | IC50 [2] [nM] | IC50 [3] [nM] | EC50 ([5]; relative to 10 μg/mL BIRB796, read-out: LPS/TNFα REC50 d-U937) [nM] | IC50 [7] [nM]
1 | COCC(=O)Nc1cc(Oc2ccc(NC(=O)Nc3cc(C(C)(C)C)nn3-c3ccc(C)cc3)cc2Cl)ccn1 [Example 29, N-(4-(4-(3-(3-tert-butyl-1-p-tolyl-1H-pyrazol-5-yl)ureido)-2-chlorophenoxy)pyridin-2-yl)-2-methoxyacetamide] | 46.1 | 2.2 | 17.9 | −0.7 | 30.8 | 0.8 | 46.1 | 77 |  |  |  | 
2 | COCC(=O)Nc1cc(Oc2c(NC(=O)Nc3cc(C(C)(C)C)nn3-c3ccc(C)cc3)ccc(F)c2F)ccn1 [Example 88, N-(4-(6-(3-(3-tert-butyl-1-p-tolyl-1H-pyrazol-5-yl)ureido)-2,3-difluorophenoxy)pyridin-2-yl)-2-methoxyacetamide] | 2090 | 989 | > 1770 | 12.3 | 10.0 | 27 | > 17700 | 1690 |  |  |  | 
3 | CNC(=O)Nc1cc(Oc2ccc(NC(=O)Nc3cc(C(C)(C)C)nn3-c3ccc(C)cc3)c(Cl)c2Cl)ccn1 [Example 50, 1-(3-tert-butyl-1-p-tolyl-1H-pyrazol-5-yl)-3-(2,3-dichloro-4-(2-(3-methylureido)pyridin-4-yloxy)phenyl)urea] | 41.2 | 1.3 | 0.6 | −5.4 | 35.9 | 0.2 | 59.2 | 1.1 |  |  |  | 
4 | COc1ccc(-n2nc(C(C)(C)C)cc2NC(=O)Nc2ccc(Oc3ccnc(NC(=O)NCCO)c3)c(Cl)c2Cl)cc1 [Example 66, 1-(4-(4-(3-(3-tert-butyl-1-(4-methoxyphenyl)-1H-pyrazol-5-yl)ureido)-2,3-dichlorophenoxy)pyridin-2-yl)-3-(2-hydroxyethyl)urea] | 21.6 | 1.1 | 4.9 | 15.0 | 90.3 | 0.3 | 45 | 5.5 |  |  |  | 
5 | CN(C)[C@H]1CCN(C(=O)Nc2cc(Oc3ccc(NC(=O)Nc4cc(C(C)(C)C)nn4-c4ccc(CO)cc4)c(Cl)c3Cl)ccn2)C1 [Example 83, (S)-N-(4-(4-(3-(3-tert-butyl-1-(4-hydroxymethylphenyl)-1H-pyrazol-5-yl)ureido)-2,3-dichlorophenoxy)pyridin-2-yl)-3-(dimethyl-amino)pyrrolidine-1-carboxamide] | 6.7 | 0.7 | 34 | −9.9 | 34.3 | 1.7 | 19.8 | 2.4 |  |  |  | 
6 | COCC(=O)Nc1cc(Oc2ccc(NC(=O)Nc3cc(C(C)(C)C)nn3-c3ccc(C)cc3)c3cccnc23)ccn1 [Example 6, N-(4-(5-(3-(3-tert-butyl-1-p-tolyl-1H-pyrazol-5-yl)ureido)quinolin-8-yloxy)pyridin-2-yl)-2-methoxyacetamide] | 6.7 | 1.6 | 3.9 | −21.3 | −14.6 | 0.1 | 57.9 | 7.2 |  |  |  | 
7 | CNC(=O)Nc1nccc(Oc2ccc(NC(=O)Nc3cc(C(C)(C)C)nn3-c3ccc(CO)cc3)c(Cl)c2Cl)n1 [Example 25, 1-(4-(4-(3-(3-tert-Butyl-1-(4-(hydroxymethyl)phenyl)-1H-pyrazol-5-yl)ureido)-2,3-dichlorophenoxy)pyrimidin-2-yl)-3-methylurea] | 10.7 | 1.7 | 2.5 | −3.5 | 58.6 | 1.2 | 139 | 10.8 |  |  |  | 
8 | COc1ccc(-n2nc(C(C)(C)C)cc2NC(=O)Nc2ccc(Oc3ccnc(NC(=O)N4CC[C@@H](N(C)C)C4)c3)c(Cl)c2Cl)cc1 [Example 81, (R)-N-(4-(4-(3-(3-tert-butyl-1-(4-methoxyphenyl)-1H-pyrazol-5-yl)ureido)-2,3-dichlorophenoxy)pyridin-2-yl)-3-(dimethylamino) pyrrolidine-1-carboxamide] | 7.7 |  |  | −8.7 | 33.3 |  | 58.5 |  | 1.1 | 4.9 | 0.8 | 14
9 | CNC(=O)Nc1cc(Oc2ccc(NC(=O)Nc3cc(C(C)(C)C)nn3-c3ccc(CO)cc3)c3ncccc23)ccn1 [Example 61, 1-(4-(8-(3-(3-tert-butyl-1-(4-hydroxymethylphenyl)-1H-pyrazol-5-yl)ureido)quinolin-5-yloxy)pyridin-2-yl)-3-methylurea] | 32.7 | 2.5 | 235 | −31.9 | −12.9 | 182 | 94 | 11.4 |  |  |  | 
10 | COCC(=O)Nc1cc(Oc2ccc(NC(=O)Nc3cc(C(C)(C)C)nn3-c3ccc(C)cc3)c(F)c2F)ccn1 [Example 34, N-(4-(4-(3-(3-tert-butyl-1-p-tolyl-1H-pyrazol-5-yl)ureido)-2,3-difluorophenoxy)pyridin-2-yl)-2-methoxyacetamide] | 134 | 0.4 | 2.2 | 2.4 | 82.1 | 0.3 | 24 | 2.5 |  |  |  | 
11 | CN(C)CCCC(=O)Nc1cc(Oc2ccc(NC(=O)Nc3cc(C(C)(C)C)nn3-c3ccc(CO)cc3)c(Cl)c2Cl)ccn1 [Example 47, N-(4-(4-(3-(3-tert-butyl-1-(4-hydroxymethylphenyl)-1H-pyrazol-5-yl)ureido)-2,3-dichlorophenoxy)pyridin-2-yl)-4-(dimethylamino) butanamide] | 2.2 | 0.5 | 8.2 | −42.5 | 85.0 | 1.6 | 5.9 | 6.4 |  |  |  | 
12 | COCC(=O)Nc1cc(Oc2ccc(NC(=O)Nc3cc(C(C)(C)C)nn3-c3ccc(C)cc3)cc2C(F)(F)F)ccn1 [Example 30, N-(4-(4-(3-(3-tert-butyl-1-p-tolyl-1H-pyrazol-5-yl)ureido)-2-trifluoromethylphenoxy)pyridin-2-yl)-2-methoxyacetamide] | 164 | 1.3 | 6.5 | 3.3 | 61.6 | 2.5 | 152 | 6.9 |  |  |  | 
13 | Cc1ccc(-n2nc(C(C)(C)C)cc2NC(=O)Nc2ccc(Oc3ccnc(NC(=O)N4CCCC4)c3)c(Cl)c2Cl)cc1 [Example 72, N-(4-(4-(3-(3-tert-butyl-1-p-tolyl-1H-pyrazol-5-yl)ureido)-2,3-dichlorophenoxy)pyridin-2-yl) pyrrolidine-1-carboxamide] | 41.3 | 0.6 | 0.2 | −13.7 | 26.9 | 1.9 | 315 | 7.5 |  |  |  | 
